ChEMBL document CHEMBL3421592, “Synthesis and QSAR study of novel anti-inflammatory active mesalazine-metronidazole conjugates” (Bioorg Med Chem Lett, 2015)

Assays:
Rattus norvegicus [1] = assay: Antiinflammatory activity in Wistar rat assessed as inhibition of carrageenan-induced paw edema at 10 mg/kg indomethacin mol equivalent, ip administered 1 hr prior to carrageenan challenge measured at 24 hrs relative to control; format: functional; details: route intraperitoneal
Rattus norvegicus [2] = assay: Antiinflammatory activity in Wistar rat assessed as inhibition of carrageenan-induced paw edema at 10 mg/kg indomethacin mol equivalent, ip administered 1 hr prior to carrageenan challenge measured at 1 hr relative to control; format: functional; details: route intraperitoneal
Rattus norvegicus [3] = assay: Antiinflammatory activity in Wistar rat assessed as inhibition of carrageenan-induced paw edema at 10 mg/kg indomethacin mol equivalent, ip administered 1 hr prior to carrageenan challenge measured at 4 hrs relative to control; format: functional; details: route intraperitoneal
Rattus norvegicus [4] = assay: Antiinflammatory activity in Wistar rat assessed as inhibition of carrageenan-induced paw edema at 10 mg/kg indomethacin mol equivalent, ip administered 1 hr prior to carrageenan challenge measured at 2 hrs relative to control; format: functional; details: route intraperitoneal
Rattus norvegicus [5] = assay: Antiinflammatory activity in Wistar rat assessed as inhibition of carrageenan-induced paw edema at 10 mg/kg indomethacin mol equivalent, ip administered 1 hr prior to carrageenan challenge measured at 3 hrs relative to control; format: functional; details: route intraperitoneal
Rattus norvegicus [6] = assay: Antiinflammatory activity in Wistar rat assessed as inhibition of carrageenan-induced paw edema at 10 mg/kg, ip administered 1 hr prior to carrageenan challenge measured at 1 hr relative to control; format: functional; details: route intraperitoneal
Rattus norvegicus [7] = assay: Ulcerogenic activity in Wistar rat assessed as ulcer index at 10 mg/kg, po administered 3 days relative to control; format: toxicity, organism-based; set-up: dose 10 mg/kg, route oral; details: in vivo, 72 h
Rattus norvegicus [8] = assay: Antiinflammatory activity in Wistar rat assessed as inhibition of carrageenan-induced paw edema at 10 mg/kg, ip administered 1 hr prior to carrageenan challenge measured at 2 hrs relative to control; format: functional; details: route intraperitoneal
Rattus norvegicus [9] = assay: Antiinflammatory activity in Wistar rat assessed as inhibition of carrageenan-induced paw edema at 10 mg/kg, ip administered 1 hr prior to carrageenan challenge measured at 3 hrs relative to control; format: functional; details: route intraperitoneal
Mus musculus [10] = assay: Toxicity in albino mouse assessed as appearance of toxic symptoms at 50 to 100 mg/kg indomethacin mol equivalent, ip measured after 24 hrs; format: organism-based; set-up: dose 50-100 mg/kg, route intraperitoneal; details: in vivo
Rattus norvegicus [11] = assay: Ulcerogenic activity in Wistar rat assessed as ulcer index at 10 mg/kg indomethacin mol equivalent, po administered 3 days relative to control; format: toxicity, organism-based; set-up: dose 10 mg/kg, route oral; details: in vivo, 72 h
Mus musculus [12] = assay: Toxicity in albino mouse assessed as mortality at 50 to 100 mg/kg indomethacin mol equivalent, ip measured after 24 hrs; format: organism-based; set-up: dose 50-100 mg/kg, route intraperitoneal; details: in vivo

Cc1ncc([N+](=O)[O-])n1CCOC(=O)c1cc(NC(=O)[C@H](Cc2ccccc2)NC(=O)OCc2ccccc2)ccc1O
inhibition in vivo (Rattus norvegicus [1]): 33.2% | inhibition in vivo (Rattus norvegicus [2]): 54.8% | inhibition in vivo (Rattus norvegicus [3]): 27.5% | inhibition in vivo (Rattus norvegicus [4]): 30.1% | inhibition in vivo (Rattus norvegicus [5]): 29%

Cc1ncc([N+](=O)[O-])n1CCOC(=O)c1cc(NC(=O)[C@H](CCCCN)NC(=O)OCc2ccccc2)ccc1O
inhibition in vivo (Rattus norvegicus [1]): 23.4% | inhibition in vivo (Rattus norvegicus [2]): 44.3% | inhibition in vivo (Rattus norvegicus [3]): 33.5% | inhibition in vivo (Rattus norvegicus [4]): 37.8% | inhibition in vivo (Rattus norvegicus [5]): 36.9%

Cc1ncc([N+](=O)[O-])n1CCOC(=O)c1cc(NC(=O)CNC(=O)OCc2ccccc2)ccc1O
inhibition in vivo (Rattus norvegicus [1]): 17.1% | inhibition in vivo (Rattus norvegicus [2]): 56.1% | inhibition in vivo (Rattus norvegicus [3]): 52.8% | inhibition in vivo (Rattus norvegicus [4]): 56.5% | inhibition in vivo (Rattus norvegicus [5]): 57%

CC(=O)Nc1ccc(O)c(C(=O)O)c1
inhibition in vivo (Rattus norvegicus [1]): 0% | inhibition in vivo (Rattus norvegicus [2]): 43.3% | inhibition in vivo (Rattus norvegicus [3]): 0% | inhibition in vivo (Rattus norvegicus [4]): 7.9% | inhibition in vivo (Rattus norvegicus [5]): 1.3%

Cc1ncc([N+](=O)[O-])n1CCOC(=O)c1cc(NC(=O)[C@H](C)NC(=O)OCc2ccccc2)ccc1O
inhibition in vivo (Rattus norvegicus [1]): 11.6% | inhibition in vivo (Rattus norvegicus [2]): 58.5% | inhibition in vivo (Rattus norvegicus [3]): 36.1% | inhibition in vivo (Rattus norvegicus [4]): 37.5% | inhibition in vivo (Rattus norvegicus [5]): 37.1%

Nc1ccc(O)c(C(=O)O)c1 [MESALAMINE]
inhibition in vivo (Rattus norvegicus [1]): 38.6% | inhibition in vivo (Rattus norvegicus [2]): 63.8% | inhibition in vivo (Rattus norvegicus [3]): 52.3% | inhibition in vivo (Rattus norvegicus [4]): 53.2% | inhibition in vivo (Rattus norvegicus [5]): 57.5%

COc1ccc2c(c1)c(CC(=O)O)c(C)n2C(=O)c1ccc(Cl)cc1 [INDOMETHACIN]
inhibition in vivo at 10 mg/kg (Rattus norvegicus [6]): 48.3% | UI (Rattus norvegicus [7]): 6 | inhibition in vivo at 10 mg/kg (Rattus norvegicus [8]): 55.3% | inhibition in vivo at 10 mg/kg (Rattus norvegicus [9]): 61.3%

Cc1ncc([N+](=O)[O-])n1CCO [METRONIDAZOLE]
Activity (Mus musculus [10]): Non-toxic | UI (Rattus norvegicus [11]): 0 | inhibition in vivo (Rattus norvegicus [1]): 0% | inhibition in vivo (Rattus norvegicus [2]): 66.3% | inhibition in vivo (Rattus norvegicus [3]): 58.9% | inhibition in vivo (Rattus norvegicus [4]): 66.3% | inhibition in vivo (Rattus norvegicus [5]): 60.8% | Activity (Mus musculus [12]): Non-toxic

Cc1ncc([N+](=O)[O-])n1CCOC(=O)c1cc(NC(=O)C(C)NC(=O)OCc2ccccc2)ccc1O (racemic)
inhibition in vivo (Rattus norvegicus [1]): 0% | inhibition in vivo (Rattus norvegicus [2]): 57.9% | inhibition in vivo (Rattus norvegicus [3]): 41.1% | inhibition in vivo (Rattus norvegicus [4]): 47% | inhibition in vivo (Rattus norvegicus [5]): 44.8%

CC(=O)Nc1ccc(O)c(C(=O)OCCn2c([N+](=O)[O-])cnc2C)c1
inhibition in vivo (Rattus norvegicus [1]): 0% | inhibition in vivo (Rattus norvegicus [2]): 63.4% | inhibition in vivo (Rattus norvegicus [3]): 15.5% | inhibition in vivo (Rattus norvegicus [4]): 24.5% | inhibition in vivo (Rattus norvegicus [5]): 16.6%

Cc1ncc([N+](=O)[O-])n1CCOC(=O)c1cc(NC(=O)[C@@H](NC(=O)OCc2ccccc2)C(C)C)ccc1O
Activity (Mus musculus [10]): Non-toxic | UI (Rattus norvegicus [11]): 0 | inhibition in vivo (Rattus norvegicus [1]): 51.7% | inhibition in vivo (Rattus norvegicus [2]): 74.4% | inhibition in vivo (Rattus norvegicus [3]): 58.2% | inhibition in vivo (Rattus norvegicus [4]): 64.5% | inhibition in vivo (Rattus norvegicus [5]): 61.5% | Activity (Mus musculus [12]): Non-toxic
